According to US8592446B2, “[1,10]-phenanthroline derivatives for the treatment of neurodegenerative or haematological diseases” (Noscira, S.A., priority 2007, dated 2013):
Like-named read-outs stand apart in the source and are kept apart here.

Experiments:
Format in all cases: cell-based
[1] = tested on: SH-SY5Y human neuroblastoma cells; test: Protection against hydrogen peroxide-induced cell death (LDH); details: compound 1 h before H2O2 100 μM, 24 h; for minimal effective concentration: Homo sapiens, SH-SY5Y, read-out: Protect. H2O2 (minimum concentration for which protection was determined)
Protocol: The aim of this assay is to determine the neuroprotective effect of the compounds of formula (I), when human neuroblastoma cells are exposed to oxidative stress induced by hydrogen peroxide, which is highly deleterious to the cell and its accumulation causes oxidation of cellular targets such as DNA, proteins, and lipids leading to mutagenesis and cell death.
SH-SY5Y human neuroblastoma cells are seeded into 96-well culture plate at a density of 10^4 cells/well. Cells are exposed to different concentrations of the compound one hour before the treatment with H2O2 100 μM during 24 h. 5 mM N-acetylcysteine (NAC), a known anti-oxidant agent was used as a positive control, and preincubated 1 hour before the treatment with H2O2. After 24 h, the medium is removed and cells attached to the bottom of the well are lysed by adding 50 μl of Triton X-100 1% in Krebs-Hepes during 5 minutes at room temperature. For LDH release quantification, Roche cytotoxicity detection kit (Cat. No. 11 644 793 001) was used.

SH-SY5Y cells = test: Neuroprotection against Aβ25-35 toxicity (LDH assay); details: Homo sapiens, pre-treated 1 hour, 200 μM Aβ25-35 24 hours, read-out: Protect. beta-Amyloid25-35 (minimum concentration showing neuroprotection)
Protocol: In order to evaluate potential neuroprotection of compounds, SH-SY5Y cells, cultured in 96-well plates, were pre-treated for 1 hour with the compound at different concentrations and then exposed 24 hours to 200 μM Aβ25-35 (Neosystem) to induce extensive oxidative stress and cell death. The ability of the compound of protecting against this toxicity is then evaluated by measuring intracellular LDH, using the colorimetric LDH assay.
It is widely accepted that the neurotoxic activity of Aβ resides within amino acids 25-35 (see e.g. Yankner B A et al., (1990) Neurotrophic and neurotoxic effects of amyloid β protein: reversal by tachykinin neuropeptides; Science 250:279-282).

[2] = tested on: SH-SY5Y human neuroblastoma cells; test: Toxicity: LDH activity release in SH-SY5Y cells; details: 24 h; for Maximum concentration tested for toxicity: increasing concentrations from 1 μM up to 1 mM
Protocol: The potential effects on cell viability of the assayed compounds are assayed in SH-SY5Y human neuroblastoma cells, by quantification of Lactate dehydrogenase (LDH) activity release. SH-SY5Y human neuroblastoma cells are seeded into 96-well culture plates at 10^4 cells/well. The medium is then removed and the cells incubated with different concentrations of the compounds during 24 h. The compounds are tested at increasing concentrations starting from 1 μM, in fresh culture medium, in order to find the minimum concentration at which the compounds are toxic, up to a maximum of 1 mM. After 24 h, the medium is removed and cells attached to the bottom of the well are lysed by adding 50 μl of Krebs-Hepes; Triton X-100 1% during 5 minutes at room temperature. For LDH release quantification, the Roche cytotoxicity detection kit (Cat.
No. 11 644 793 001) is used. The LDH activity is measured by its absorbance at 492 nm with reference wavelength 620 nm.
In Table 1, for each compound the maximum concentration at which toxicity was tested is indicated in the second column. In the third column, it is indicated whether at this maximum concentration the compound was toxic or not. All the compounds, with the exception of Compound 3, resulted non-toxic at the concentration for which activity was found, in most of the cases even at a 1000-fold concentration. Thus, the compounds may be considered non-toxic.

[3] = tested on: Aβ (1-40) secretion by CHO7W cells (stably transfected with human APP751 wt cDNA); test: Inhibition of Aβ(1-40) secretion (ELISA, cellular supernatants); details: Aβ 1-40 ELISA; for minimal effective concentration: read-out: Inhibition secretion beta-amyloid (minimum concentration)
From the text: To quantitate Aβ secretion ELISA-based method was used. The assay consists in detection of antigen by selective monoclonal anti-Aβ-antibodies at two different epitopes forming a “Sandwich-complex”, that is detected by colorimetric measure due to the binding of a secondary antibody conjugated with peroxidase that catalyses the conversion of a substrate or chromogen, TMB, into a coloured product, directly proportional to the peptide quantity in the sample. The Aβ production has been analyzed by ELISA, using a colorimetric commercial kit: Immunoassay Kit Human β Amyloid 1-40 (Biosource).
Aβ (1-40) were quantified from cellular supernatants. An APP-transfected cell line has been employed for the experiments: CHO7W (stably transfected with human APP751 wt cDNA). The cells were grown in a culture medium consisting of DMEM supplemented with 2% Fetal bovine serum, 1% penicillin-streptomycin, 1% L-glutamine and 200 μg/ml G418. Cells are seeded in 96-well culture microplate, at 5000 cells/well and treatment with different compounds at different concentrations is performed 24 hour after seeding.
OM99-2 (H-5108, Bachem), a BACE inhibitor, was used as Aβ secretion reduction positive control in all the Aβ secretion studies. The cells were treated with this compound at 3 μM concentration, culture media were collected at 24 hours.

[4] = tested on: SH-SY5Y human neuroblastoma cells; test: Protection against 6-OHDA-induced cell death, condition B (no fetal bovine serum); details: preincubated 1 hour, 6-OHDA 50 μM 24 hours, read-out: Protect. 6-OHDA (−FBS) (minimum concentration with neuroprotective effect)
From the text: (§1) The aim of this experiment is to determine the protective effect of the compounds of formula (1) against the toxicity caused by 6-OHDA. This toxin induces a cell death similar to which occurs in Parkinson's disease, destroying dopaminergic neurons (“MPTP and 6-hydroxydopamine-induced neurodegeneration as models for Parkinson's disease: neuroprotective strategies”; Grunblatt E, et al.; J Neurol. 2000 Apr; 247 Suppl 2:II95-102).
(§2) Two or three days before the experiment, the SH-SY5Y human neuroblastoma cells are seeded into 96-well culture plate at a density of 10^4 cells/well. Cells are exposed to the treatment with 6-OHDA and, finally, cell death is measured by LDH quantification. As positive control we used NAC.
• B) NAC and the compound of formula (I) are preincubated during 1 hour before the treatment with 6-OHDA 50 μM during 24 hours. The assay is performed in a medium without any fetal bovine serum.
(§3) For each compound the minimum concentration of compound of formula (I) at which a neuroprotective effect is shown.

[5] = tested on: SH-SY5Y human neuroblastoma cells; test: Protection against 6-OHDA-induced cell death, condition A (10% foetal bovine serum); details: preincubated 2 hours, 6-OHDA 75 μM 16 hours, read-out: Protect. 6-OHDA (+ FBS) (minimum concentration with neuroprotective effect)
From the text: as §1, §2
• A) NAC and the compound of formula (I) are preincubated during 2 hours before the treatment with 6-OHDA 75 μM during 16 hours. The assay is performed in medium containing 10% Foetal bovine serum.
as §3

Compound	minimal effective concentration [1]	minimal effective concentration (SH-SY5Y cells)	Maximum concentration tested for toxicity [2]	Toxic at maximum concentration tested (Yes/No) ([2]; at 1 mM)	Inhibition secretion beta-amyloid (minimum concentration) [3]	minimal effective concentration [4]	minimal effective concentration [5]	Toxicity at the concentration for which activity was found [2]	Toxic at maximum concentration tested (Yes/No) ([2]; at 10 μM)	Protect. H2O2 (minimum concentration for which protection was determined) [1]	minimal effective concentration [3]	Toxic at maximum concentration tested (Yes/No) ([2]; at 1000 μM)	minimal effective concentration ([3]; Homo sapiens, CHO-7W)	Toxic at maximum concentration tested (Yes/No) ([2]; at 100 μM)
COc1cc(C=NO)nc2c1ccc1cccnc12 [Compound 1, 4-Methoxy-[1,10]phenanthroline-2-carbaldehyde oxime]	0.05 µM	5 µM	1000 µM	Yes	0.01 mM	0.5 µM	0.5 µM							
ON=Cc1cc(Cl)c2ccc3cccnc3c2n1 [Compound 2, 4-Chloro-[1,10]phenanthroline-2-carbaldehyde oxime]	0.05 µM	10 µM	1000 µM	Yes	1 mM	0.5 µM	0.5 µM							
O=Cc1cc(Cl)c2ccc3cccnc3c2n1 [Compound 3, 4-Chloro-[1,10]phenanthroline-2-carbaldehyde]	10 µM		10 µM			10 µM		exception	Yes					
CCCSc1cc(/C=N/O)nc2c1ccc1cccnc12 [Compound 5, 4-Propylsulfanyl-[1,10]phenanthroline-2-carbaldehyde oxime]			1000 µM	Yes		0.5 µM	0.05 µM			5 nM	0.001 µM			
CCOc1cc(/C=N/O)nc2c1ccc1cccnc12 [Compound 6, 4-Ethoxy-[1,10]phenanthroline-2-carbaldehyde oxime]		10 µM	1000 µM	Yes		0.5 µM	0.05 µM			5 nM	0.01 µM			
NCCOc1cc(/C=N/O)nc2c1ccc1cccnc12 [Compound 9, 4-(2-Amino-ethoxy)-[1,10]phenanthroline-2-carbaldehyde oxime]	5 µM	5 µM	10 µM		10 mM	5 µM	5 µM		No					
CN(C)C(=O)CSc1cc(C=NO)nc2c1ccc1cccnc12 [Compound 12, 2-[2-(Hydroxyimino-methyl)-[1,10]phenanthrolin-4-ylsulfanyl]-N,N-dimethyl-acetamide]	0.1 µM	10 µM	1000 µM			0.5 µM	0.1 µM					No	1 µM	
ON=Cc1cc(SCC(F)(F)F)c2ccc3cccnc3c2n1 [Compound 13, 4-(2,2,2-Trifluoro-ethylsulfanyl)-[1,10]phenanthroline-2-carbaldehyde oxime]	0.5 µM	5 µM	1000 µM			5 µM	0.5 µM					No	10 µM	
COC(=O)CSc1cc(C=NO)nc2c1ccc1cccnc12 [Compound 14, [2-(Hydroxyimino-methyl)-[1,10]phenanthrolin-4-ylsulfanyl]-acetic acid methyl ester]	0.05 µM	10 µM	1000 µM			0.5 µM	0.5 µM					Yes	0.01 µM	
ON=Cc1cc(Sc2nccs2)c2ccc3cccnc3c2n1 [Compound 15, 4-(Thiazol-2-ylsulfanyl)-[1,10]phenanthroline-2-carbaldehyde oxime]	0.5 µM		100 µM										10 µM	Yes
Cc1cnc(Sc2cc(C=NO)nc3c2ccc2cccnc23)s1 [Compound 17, 4-(5-Methyl-thiazol-2-ylsulfanyl)-[1,10]phenanthroline-2-carbaldehyde oxime]	5 µM		1000 µM									Yes	10 µM	
ON=Cc1cc(Sc2nncs2)c2ccc3cccnc3c2n1 [Compound 19, 4-([1,3,4]Thiadiazol-2-ylsulfanyl)-[1,10]phenanthroline-2-carbaldehyde oxime]	0.5 µM		10 µM						Yes				1 µM	
CSc1cc(C=O)nc2c1ccc1cccnc12 [Compound 20, 4-Methylsulfanyl-[1,10]phenanthroline-2-carbaldehyde]	0.5 µM		10 µM						Yes				10 µM	
